From a melting point compilation (Tetko et al.; mined from patent text by program, amines drawn as free bases though some values may be those of a salt)

Work on `C(=Cc1ccc(-c2nnc(-c3ccccc3)o2)cc1)c1ccc(-c2cnn(-c3ccccc3)n2)cc1` yielded a melting point of 209 to 210 °C.
For `CCc1[nH]n(C2CCCC2)c2nc(Cc3ccc(OC(=O)c4ccc(CN(CC)CC)cc4)cc3)nc(=O)c1-2`, the melting point was 143 to 145 °C.
With `Cc1cc(-c2cc(COS(C)(=O)=O)c(=O)n(Cc3ccccc3Cl)n2)ccc1F` the melting point was 142 to 143 °C.
Work on `CN1CCN(c2ccc3cnn(C)c3n2)CC1` yielded a melting point of 106 to 107 °C.
Molecule `COc1ccc2cccc(C=CN3C(=O)c4ccccc4C3=O)c2c1` has a melting point of 146 °C.
Molecule `CN(Cc1cc(C(F)(F)F)cc(C(F)(F)F)c1)C1CCN(c2ccc(OC[C@@]3(C)Cn4cc([N+](=O)[O-])nc4O3)cc2)CC1` has a melting point of 194 to 195 °C.
For `COC(=O)c1cccc(CCN(C)CCCC(C(=O)OC)(c2ccc(OC)c(OC)c2)C(C)C)c1` (configuration not stated), the melting point was 87 to 90 °C.
Work on `COc1cc(OCc2ccccn2)ccc1/C=C/C(=O)CC(=O)/C=C/c1c[nH]c2ccc(F)cc12` yielded a melting point of 183 to 186 °C.
Work on `CC(C)(C)N[C@@H]1CCc2c(ccc(OCc3ccccc3)c2C#N)[C@H]1O` (relative stereo) yielded a melting point of 120 to 122 °C.
Work on `O=C(O)[C@@H]1C[C@@H](c2ccccc2)CN1C(=O)c1ccccc1Br` yielded a melting point of 146 to 147 °C.
Molecule `COc1cc2ccc(S(=O)(=O)Cl)cc2cc1OC` has a melting point of 128 to 130 °C.
`COc1ccccc1N1CCN(C(=O)Cc2ccccc2Br)CC1` gave a melting point of 95 to 97 °C.
In the case of `COc1ccc(/C(=C/C=C/C(=O)O)c2cccs2)cc1`, the melting point is reported as 214 to 216 °C.
`CC(=O)N(C(C)=O)c1cc2c(cc1Cl)C(=O)C1(CCOC1=O)O2` (configuration not stated) showed a melting point of 181 to 185 °C.
Work on `O=C(O)CCc1cc(OCCCCc2cc(-c3ccc(C(F)(F)F)cc3)no2)nn1-c1ccccc1` yielded a melting point of 139 to 140 °C.
`CN1CCN(C(=O)c2cc(-c3ccccc3)c(=O)[nH]c2-c2c(Cl)cccc2C#N)CC1` showed a melting point of 250 to 253 °C.
For `N#CCc1cnc(Cl)c(Cl)c1`, the melting point was 72 to 75 °C.
`COc1cc2ncnc(Nc3ccc(F)c(Cl)c3)c2cc1OCCN1CC(=O)O[C@@H](C)C1` showed a melting point of 212 to 213 °C.
`Cc1cc(C)c(-c2nc(Oc3ccccc3)nc(Oc3ccccc3)n2)c(C)c1` gave a melting point of 135 to 143 °C.
For `CC1CC(c2cc3cccc(F)c3s2)CCN1` (configuration not stated), the melting point was 45 to 47 °C.
For `CCc1cc(-c2ccc(-c3ccnn3C)cc2)ccc1OC`, the melting point was 97 to 100 °C.
Work on `CS(=O)(=O)N1CCN(c2n[nH]c(-c3ccc(Cl)cc3)c2-c2ccncc2)CC1` yielded a melting point of 245 to 248 °C.
In the case of `Nc1c(O)c2ccccc2oc1=O`, the melting point is reported as 400 °C.
Work on `CCOC(=O)c1nnc(N2N=C(c3ccc([N+](=O)[O-])c(C)c3)c3cc4c(cc3C[C@H]2C)OCO4)s1` yielded a melting point of 115 to 118 °C.
Work on `Cc1c(C(F)(F)C(F)(F)F)oc2c(Br)cccc12` yielded a melting point of 65 °C.
For `O=C(O)CCN(C(=O)Cl)c1cccc(Cl)c1`, the melting point was 106 °C.
Molecule `CC1(c2nn(-c3c(Cl)cc(C(F)(F)F)cc3Cl)c(N)c2C#N)CC1(Cl)Cl` (configuration not stated) has a melting point of 209 to 210 °C.
In the case of `CNC(=S)NS(=O)(=O)c1cc(CCNC(=O)C=Cc2cccs2)ccc1OCC1CCCO1` (configuration not stated), the melting point is reported as 78 °C.
With `COc1cc([N+](=O)[O-])c(C(=O)Cc2ccccc2)cc1O` the melting point was 142 to 143 °C.
Molecule `CCOC(=O)c1sc(Cn2cc(Cl)cnc2=O)nc1C` has a melting point of 169 to 171 °C.
Molecule `CC(C)N(C(=O)C(F)(F)F)C(C#N)c1ccc(Cl)cc1` (configuration not stated) has a melting point of 78.5 to 79.5 °C.
Work on `CC1(C)CC(O)(C(F)(F)F)C(Nc2cccc3[nH]c(=O)ccc23)c2cc(O)c(Cl)cc21` (configuration not stated) yielded a melting point of 158 °C.
In the case of `CC(=O)N(C)Nc1ccnc2c(NC(=O)c3c(Cl)cccc3Cl)cccc12`, the melting point is reported as 215 °C.
For `CCOC(=O)c1ccc(NC(=O)C(CSC(C)=O)Cc2ccccc2)cc1` (configuration not stated), the melting point was 119 to 121 °C.
`Cc1c(NC(=O)c2ccc(OC[C@@H]3CCCO3)cc2)ccc2cc(CN[C@@H]3CCCC[C@H]3O)cnc12` showed a melting point of 142 to 143 °C.
Molecule `CCCc1ncnc(O)c1Cc1ccc(-c2ccccc2C#N)cc1` has a melting point of 158 °C.
`CCCc1nn(C)c2c(=O)n(CCOc3ccc(NC(C)=O)cc3)c(CC)nc12` showed a melting point of 100 to 104 °C.
`CN(C)c1ccc(C(=S)Nc2ccc([N+](=O)[O-])cc2)cc1` showed a melting point of 210 °C.
In the case of `c1cnc(N2CCN(Cc3ccc4c(c3)Cc3c(-c5ccsc5)n[nH]c3-4)CC2)nc1`, the melting point is reported as 245 to 247 °C.
Work on `COc1ccc(CSC#N)cc1OCc1ccccc1` yielded a melting point of 70 to 74 °C.
Molecule `CCOC(=O)n1cc(C#N)c(-c2cccc(Cl)c2F)c1` has a melting point of 149 °C.
Work on `CCCc1nc2cc(Cl)c(S(N)(=O)=O)cc2[nH]1` yielded a melting point of 230 to 234 °C.
In the case of `COC(=O)c1ccccc1OCC(O)CNC(C)C` (configuration not stated), the melting point is reported as 78 to 79 °C.
For `O=C(O)c1ccc(NC(=O)[C@H](Cc2ccc(-c3ccccc3)cc2)NCP(=O)(O)O)cc1`, the melting point was 270 to 274 °C.
`Cc1ccc(OC2CCN(C(=O)C(=O)Nc3ccc4[nH]c(=O)oc4c3)CC2)cc1` gave a melting point of 203 °C.
In the case of `COc1ccc(C2(c3ccc(OC)cc3)CC2(C)Br)cc1` (configuration not stated), the melting point is reported as 97 to 104 °C.
`COC(=O)/C=C/c1ccc(NC(=O)CCCBr)nc1` showed a melting point of 156 to 173 °C.
Molecule `CCOC(=O)c1ncc(-c2ccc(Br)cc2)o1` has a melting point of 120 to 122 °C.
`CCCCn1nnc2cc(C(O)c3ccsc3)ccc21` (configuration not stated) showed a melting point of 80 °C.
Work on `Cc1ccc(S(=O)(=O)c2cnc(C)nc2Nc2c(C)cc(C)cc2C)cc1` yielded a melting point of 202 to 204 °C.
Work on `O=C(O)Cc1sc(S)nc1-c1ccc(Cl)cc1` yielded a melting point of 245 to 247 °C.
`CCCCN(CCCC)CCCOc1ccc(S(=O)(=O)c2ncsc2-c2ccccc2)cc1` showed a melting point of 110 °C.
For `CCCCCCCCCCCCOc1ccc(C(=O)O)c(O)c1`, the melting point was 98 to 100 °C.
With `CON(C)C(=O)Nc1ccc(OCc2ccc(C(C)C)cc2)cc1` the melting point was 87.5 to 88 °C.
Molecule `CCc1ccc(COc2cccc3c2CN(C2CCC(=O)NC2=O)C3=O)cc1` (configuration not stated) has a melting point of 158 to 160 °C.
With `CC1(C)OCC(N2CCC(Cc3ccccc3)CC2)O1` (configuration not stated) the melting point was 92 to 94 °C.
For `Clc1ccc2c(c1)N(c1ncnc3cc(Cl)ccc13)CC2`, the melting point was 189 °C.
`O=Cc1ccc(-c2ccc3ncnc(Nc4ccc(OCc5cccc(F)c5)c(Cl)c4)c3c2)o1` showed a melting point of 230 to 234 °C.
Work on `N#Cc1ccc(Cc2cccc3c2CCN(Cc2cncn2Cc2ccc(C#N)cc2)C3)cc1` yielded a melting point of 195 to 196 °C.
Work on `COc1ccc(-c2ccc3nnc(-c4ccccc4OC)n3n2)cc1OC` yielded a melting point of 95 to 97 °C.
For `COc1cc(C(=O)C=Cc2cccnc2)cc(OC)c1OC`, the melting point was 137 to 138 °C.
Molecule `COCCCn1c(C(N)=O)cc2c3c(c(-c4ccccc4Cl)cc21)C(=O)NC3=O` has a melting point of 260 to 261 °C.
`COC(=O)C1(CCCCl)Oc2ccccc2CCC1O` (configuration not stated) showed a melting point of 107 to 109 °C.
With `Cc1nc(C(=O)NCCO[N+](=O)[O-])co1` the melting point was 106 to 108 °C.
Molecule `Cc1c(CC(=O)O)c2ccccc2n1-c1cc(Cl)nc(Cl)n1` has a melting point of 205 to 207 °C.
`CCNc1cncc(C#N)c1` showed a melting point of 110 °C.
With `CN1CCC(c2nc(-c3ccccc3)c3ccccc3n2)CC1` the melting point was 83 to 86 °C.
`Cc1cc(Oc2ccccc2)ccc1[N+](=O)[O-]` gave a melting point of 43 to 46 °C.
For `COc1ccc2nc(NC(=O)C(CC3CCCC3)c3ccc(S(=O)(=O)CCc4ccccc4)cc3)sc2n1` (configuration not stated), the melting point was 169 to 172 °C.
In the case of `CCCN(CCC)C(=O)Cc1c(-c2ccc(Cl)cc2)nn2cccnc12`, the melting point is reported as 104 to 106 °C.
With `CCCCCCCCCCCCc1ccc2nc3c(c(O)c2c1)CCCC3` the melting point was 225 to 226 °C.
With `CCc1nc2c(N)nc3cccnc3c2n1NCCCNS(C)(=O)=O` the melting point was 176 to 178 °C.
